According to patent US8133849B2, “Herbicidal compounds” (Syngenta Limited, priority 2007, dated 2012):

Legend:
Experiment in all cases: Example B2 herbicidal action, post-emergence, pots in glasshouse, damage score 0-10
Assay type in all cases: in vivo
Conditions in all cases: application post-emergence, rate 1000 g/ha, evaluated after 13 days
[1] = system: Setaria faberi
Protocol: (§1) Seeds of a variety of test species were sown in standard soil in pots. After 8 days cultivation (post-emergence) under controlled conditions in a glasshouse (at 24/16° C., day/night; 14 hours light; 65% humidity), the plants were sprayed with an aqueous spray solution derived from the formulation of the technical active ingredient in acetone/water (50:50) solution containing 0.5% Tween 20 (polyoxyethelyene sorbitan monolaurate, CAS RN 9005-64-5). The test plants were then grown in a glasshouse under controlled conditions in a glasshouse (at 24/16° C., day/night; 14 hours light; 65% humidity) and watered twice daily. After 13 days, the test was evaluated (10=total damage to plant; 0=no damage to plant).

[2] = system: Echinochloa crus-galli
Protocol: as §1

[3] = system: Ipomea hederaceae
Protocol: as §1

[4] = system: Solanum nigrum
Protocol: as §1

[5] = system: Amaranthus retroflexus
Protocol: as §1

Row | Structure (SMILES) | SETFA damage score (10=total damage to plant; 0=no damage to plant) [1] | ECHCG damage score (10=total damage to plant; 0=no damage to plant) [2] | IPOHE damage score (10=total damage to plant; 0=no damage to plant) [3] | SOLNI damage score (10=total damage to plant; 0=no damage to plant) [4] | AMARE damage score (10=total damage to plant; 0=no damage to plant) [5]
1 | CSC(=O)OC1=C(c2c(Cl)cccc2C(F)(F)F)S(=O)(=O)N(CC(F)F)c2nccnc21 [Compound C129] | 9 | 9 | 9 | 10 | 10
2 | Cc1ccc(C(F)(F)F)c(C2=C(OC(=O)C(C)C)c3nccnc3N(CC(F)F)S2(=O)=O)c1 [Compound C146] | 2 | 4 | 9 | 7 | 8
3 | CCOC(=O)c1ccc(C(F)(F)F)nc1C1=C(OC(=O)SC)c2nccnc2N(CCC(F)F)S1(=O)=O [Compound C139, 2-[1-(3,3-difluoro-propyl)-4-methylsulfanylcarbonyloxy-2,2-dioxo-1,2-dihydro-2-λ-6-thia-1,5,8-triaza-naphthalen-3-yl]-6-trifluoromethyl-nicotinic acid ethyl ester] | 3 | 0 | 1 | 0 | 0
4 | O=S1(=O)C(c2ccc(Cl)cc2Cl)=C(OCC(F)(F)F)c2nccnc2N1CC(F)(F)F [Compound C106, 3-(2,4-dichloro-phenyl)-4-(2,2,2-trifluoro-ethoxy)-1-(2,2,2-trifluoro-ethyl)-1H-2-thia-1,5,8-triaza-naphthalene 2,2-dioxide] | 0 | 1 | 3 | 7 | 6
5 | CCN1c2nccnc2C(O)=C(c2c(Cl)ccc(Cl)c2C(F)(F)F)S1(=O)=O [Compound D26] | 4 | 7 | 8 | 8 | 8
6 | COc1ccc(Cl)c(C2=C(O)c3nccnc3N(CC(F)F)S2(=O)=O)c1F [Compound D60] | 2 | 4 | 8 | 7 | 1
7 | CCN1c2nccnc2C(OC(=O)C(C)(C)C)=C(c2c(F)ccc(OC)c2Cl)S1(=O)=O [Compound C24] | 0 | 4 | 9 | 9 | 2
8 | CCN1c2nccnc2C(O)=C(c2cc(C(F)(F)F)ccc2Br)S1(=O)=O [Compound D35] | 4 | 1 | 10 | 9 | 8
9 | CCSC(=O)OC1=C(c2c(Cl)cccc2C(F)(F)F)S(=O)(=O)N(CC(F)F)c2nccnc21 [Compound C105] | 9 | 9 | 8 | 9 | 10
10 | CS(=O)(=O)OC1=C(c2cc(C(F)(F)F)ccc2Cl)S(=O)(=O)N(CC(F)F)c2nccnc21 [Compound C95] | 3 | 6 | 10 | 9 | 7
11 | CC(C)(C)C(=O)OC1=C(c2cc(C(F)(F)F)ccc2Cl)S(=O)(=O)N(CC(F)F)c2nccnc21 [Compound C34, 2,2-dimethyl-propionic acid 3-(2-chloro-5-trifluoromethyl-phenyl)-1-(2,2-difluoro-ethyl)-2,2-dioxo-1,2-dihydro-2-λ-6-thia-1,5,8-triaza-naphthalen-4-yl ester] | 2 | 7 | 10 | 9 | 7
12 | CC(C)C(=O)OC1=C(c2c(Cl)ccc(Cl)c2Cl)S(=O)(=O)N(CC(F)F)c2nccnc21 [Compound C38] | 9 | 9 | 10 | 10 | 9
13 | CCN1c2nccnc2C(O)=C(c2cc(C(F)(F)F)ccc2C(F)(F)F)S1(=O)=O [Compound D24] | 1 | 3 | 10 | 10 | 6
14 | CCSC(=O)OC1=C(c2cc(C(F)(F)F)ccc2Cl)S(=O)(=O)N(CC)c2nccnc21 [Compound C87] | 0 | 5 | 9 | 10 | 7
15 | O=S1(=O)C(c2c(Cl)cccc2C(F)(F)F)=C(O)c2c(ncc[n+]2[O-])N1CC(F)F [Compound E2] | 8 | 6 | 8 | 9 | 8
16 | CC(C)C(=O)OC1=C(c2ccc(C(F)(F)F)cc2C(F)(F)F)S(=O)(=O)N(CC(F)F)c2nccnc21 [Compound C127] | 2 | 4 | 8 | 10 | 8
17 | O=S1(=O)C(c2c(C(F)(F)F)cccc2C(F)(F)F)=C(O)c2nccnc2N1CC(F)F [Compound D42] | 7 | 4 | 9 | 8 | 7
18 | CCSC(=O)OC1=C(c2c(Cl)ccc(Cl)c2Cl)S(=O)(=O)N(C)c2nccnc21 [Compound C94] | 2 | 6 | 9 | 9 | 6
19 | O=S1(=O)C(c2cc(F)c(Cl)cc2Cl)=C(O)c2nccnc2N1CC(F)F [Compound D25] | 4 | 3 | 9 | 10 | 10
20 | CC(C)(C)C(=O)OC1=C(c2c(F)cccc2C(F)(F)F)S(=O)(=O)N(CC(F)F)c2nccnc21 [Compound C78] | 3 | 4 | 3 | 6 | 4
21 | CC(C)(C)C(=O)OC1=C(c2ccccc2I)S(=O)(=O)N(CC(F)F)c2nccnc21 [Compound C81] | 7 | 8 | 10 | 10 | 10
22 | CC(C)(C)C(=O)OC1=C(c2c(F)ccc(-c3cccc(Cl)c3)c2Cl)S(=O)(=O)N(CC(F)F)c2nccnc21 [Compound C42, 2,2-dimethylpropionic acid-3-(2,3′-dichloro-4-fluoro-biphenyl-3-yl)-1-(2,2-difluoroethyl)-2,2-dioxo-1,2-dihydro-2-λ-6-thia-1,5,8-triaza-naphthalen-4-yl ester] | 2 | 2 | 4 | 3 | 2
